The NIST ThermoML archive (doi:10.1016/j.fluid.2008.11.001)
Numbers after ± are expanded uncertainties.

How the values were obtained:
[1] = refractive index (Na D-line) (dimensionless); conditions: 298.15 K; 101.33 kPa; Liquid; refractometer
[2] = 298.15 K; 101 kPa; Liquid; Vibrating tube method
[3] = refractive index (Na D-line) (dimensionless); xn = mol fraction of the nth substance listed; conditions: 298.15 K, 101 kPa, Liquid, refractometer
[4] = xn = mol fraction of the nth substance listed; conditions: 298.15 K, 101 kPa, Liquid, Vibrating tube method

CC(C)CC(C)(C)C [2,2,4-trimethylpentane]
refractive index [1]: 1.38898 ± 0.00014 | mass density [2]: 688.18 ± 0.15 kg/m3

CC(C)CC(C)(C)C [2,2,4-trimethylpentane] + COC(=O)OC
refractive index ([3]; x2 = 0): 1.38898 ± 0.00014 | mass density ([4]; x2 = 0): 688.18 ± 0.15 kg/m3

COC(=O)OC [dimethyl carbonate]
refractive index [1]: 1.36654 ± 0.00014 | mass density [2]: 1063.04 ± 0.06 kg/m3

COC(=O)OC [dimethyl carbonate] + CC(C)CC(C)(C)C
refractive index ([3]; x1 = 0.0508): 1.38814 ± 0.00014 | refractive index ([3]; x1 = 0.1017): 1.38716 ± 0.00014 | refractive index ([3]; x1 = 0.1995): 1.38504 ± 0.00014 | refractive index ([3]; x1 = 0.3007): 1.38275 ± 0.00014 | refractive index ([3]; x1 = 0.4002): 1.38062 ± 0.00014 | refractive index ([3]; x1 = 0.5002): 1.37889 ± 0.00014 | refractive index ([3]; x1 = 0.5996): 1.37642 ± 0.00014 | refractive index ([3]; x1 = 0.7005): 1.37408 ± 0.00014 | refractive index ([3]; x1 = 0.8002): 1.37109 ± 0.00014 | refractive index ([3]; x1 = 0.9011): 1.36879 ± 0.00014 | refractive index ([3]; x1 = 0.9504): 1.36722 ± 0.00014 | refractive index ([3]; x1 = 1): 1.36654 ± 0.00014 | mass density ([4]; x1 = 0.0508): 697.25 ± 0.15 kg/m3 | mass density ([4]; x1 = 0.1017): 706.78 ± 0.15 kg/m3 | mass density ([4]; x1 = 0.1995): 727.06 ± 0.15 kg/m3 | mass density ([4]; x1 = 0.3007): 751.06 ± 0.15 kg/m3 | mass density ([4]; x1 = 0.4002): 778.05 ± 0.17 kg/m3 | mass density ([4]; x1 = 0.5002): 809.37 ± 0.2 kg/m3 | mass density ([4]; x1 = 0.5996): 845.17 ± 0.18 kg/m3 | mass density ([4]; x1 = 0.7005): 887.53 ± 0.16 kg/m3 | mass density ([4]; x1 = 0.8002): 936.46 ± 0.12 kg/m3 | mass density ([4]; x1 = 0.9011): 994.92 ± 0.07 kg/m3 | mass density ([4]; x1 = 0.9504): 1027.38 ± 0.06 kg/m3 | mass density ([4]; x1 = 1): 1063.04 ± 0.06 kg/m3

COC(=O)OC [dimethyl carbonate] + CCO
refractive index ([3]; x1 = 0.051): 1.36039 ± 0.00014 | refractive index ([3]; x1 = 0.1): 1.3606 ± 0.00014 | refractive index ([3]; x1 = 0.1999): 1.36122 ± 0.00014 | refractive index ([3]; x1 = 0.2998): 1.36186 ± 0.00014 | refractive index ([3]; x1 = 0.4005): 1.36241 ± 0.00014 | refractive index ([3]; x1 = 0.5008): 1.36301 ± 0.00014 | refractive index ([3]; x1 = 0.6011): 1.36375 ± 0.00014 | refractive index ([3]; x1 = 0.6993): 1.36439 ± 0.00014 | refractive index ([3]; x1 = 0.8002): 1.36504 ± 0.00014 | refractive index ([3]; x1 = 0.9008): 1.36576 ± 0.00014 | refractive index ([3]; x1 = 0.9514): 1.36614 ± 0.00014 | refractive index ([3]; x1 = 1): 1.36654 ± 0.00014 | mass density ([4]; x1 = 0.051): 805.05 ± 0.11 kg/m3 | mass density ([4]; x1 = 0.1): 823.15 ± 0.11 kg/m3 | mass density ([4]; x1 = 0.1999): 857.92 ± 0.11 kg/m3 | mass density ([4]; x1 = 0.2998): 889.9 ± 0.12 kg/m3 | mass density ([4]; x1 = 0.4005): 919.86 ± 0.13 kg/m3 | mass density ([4]; x1 = 0.5008): 947.72 ± 0.15 kg/m3 | mass density ([4]; x1 = 0.6011): 973.66 ± 0.11 kg/m3 | mass density ([4]; x1 = 0.6993): 997.55 ± 0.08 kg/m3 | mass density ([4]; x1 = 0.8002): 1020.67 ± 0.07 kg/m3 | mass density ([4]; x1 = 0.9008): 1042.49 ± 0.06 kg/m3 | mass density ([4]; x1 = 0.9514): 1053.11 ± 0.06 kg/m3 | mass density ([4]; x1 = 1): 1063.04 ± 0.06 kg/m3

CCO [ethanol]
refractive index [1]: 1.35933 ± 0.00014 | mass density [2]: 785.33 ± 0.12 kg/m3

CCO [ethanol] + COC(=O)OC
refractive index ([3]; x2 = 0): 1.35933 ± 0.00014 | mass density ([4]; x2 = 0): 785.33 ± 0.12 kg/m3
